Publication PMC8041284, “Tunable Methacrylamides for Covalent Ligand Directed Release Chemistry” (Journal of the American Chemical Society, 2021)
pIC50: −log10 of the molar value. Entries after “also recorded” stand apart in the source; their conditions may differ.

Key:
[1] = target: T1, EGFR (Homo sapiens, UniProt P00533); assay: In vitro kinase activity assay (Nanosyn); type: biochemical; settings: EGFR kinase activity assay, 0.75 nM EGFR, 5 μM ATP
Target sequence in this assay (P00533 25-1210): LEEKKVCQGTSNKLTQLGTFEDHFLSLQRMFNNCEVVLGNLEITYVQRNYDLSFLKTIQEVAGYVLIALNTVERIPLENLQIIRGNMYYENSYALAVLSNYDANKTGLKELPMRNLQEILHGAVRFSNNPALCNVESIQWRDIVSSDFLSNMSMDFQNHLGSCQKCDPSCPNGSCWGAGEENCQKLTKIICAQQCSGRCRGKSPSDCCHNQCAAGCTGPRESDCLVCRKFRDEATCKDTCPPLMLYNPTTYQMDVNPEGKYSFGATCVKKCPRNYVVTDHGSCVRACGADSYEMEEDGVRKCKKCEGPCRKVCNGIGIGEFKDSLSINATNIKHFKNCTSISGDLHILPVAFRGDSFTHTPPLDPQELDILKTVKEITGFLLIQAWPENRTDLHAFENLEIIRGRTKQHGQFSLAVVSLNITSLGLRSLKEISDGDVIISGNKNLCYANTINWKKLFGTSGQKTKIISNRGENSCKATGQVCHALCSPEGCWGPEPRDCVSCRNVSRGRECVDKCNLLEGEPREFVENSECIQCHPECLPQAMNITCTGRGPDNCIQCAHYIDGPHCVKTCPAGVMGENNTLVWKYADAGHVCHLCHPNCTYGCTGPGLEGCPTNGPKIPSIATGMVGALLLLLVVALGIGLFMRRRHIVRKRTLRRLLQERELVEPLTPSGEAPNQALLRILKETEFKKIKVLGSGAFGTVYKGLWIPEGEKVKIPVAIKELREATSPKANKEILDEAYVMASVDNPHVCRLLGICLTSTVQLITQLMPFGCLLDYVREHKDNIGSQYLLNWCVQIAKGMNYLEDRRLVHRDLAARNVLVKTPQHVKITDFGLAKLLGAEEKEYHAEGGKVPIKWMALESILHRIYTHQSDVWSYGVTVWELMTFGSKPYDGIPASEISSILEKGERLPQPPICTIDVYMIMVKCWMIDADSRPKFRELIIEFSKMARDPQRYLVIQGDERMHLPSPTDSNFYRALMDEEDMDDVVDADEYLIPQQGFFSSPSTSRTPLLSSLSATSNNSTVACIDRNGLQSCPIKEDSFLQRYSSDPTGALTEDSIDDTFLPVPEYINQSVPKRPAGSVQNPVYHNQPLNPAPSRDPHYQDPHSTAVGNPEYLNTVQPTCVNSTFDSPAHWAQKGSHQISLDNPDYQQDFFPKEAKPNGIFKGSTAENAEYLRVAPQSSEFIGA
Protocol: (§2) Kinase reactions are assembled in 384-well plates (Greiner) in a total volume of 20 μL. Test compounds were diluted in DMSO to a final concentration, while the final concentration of DMSO in all assays was kept at 1%. The compounds were incubated with the kinases for 2 h. […] The reaction was initiated by 2-fold dilution into a solution containing 5 μM ATP and 1 μM substrate in the kinase buffer
in 100 mM HEPES, pH 7.5, 0.1% BSA, 0.01% Triton X-100, 1 mM DTT, 10 mM MnCl2.
initiated by 2-fold dilution into a solution containing 5 μM ATP and 1 μM substrate in the kinase buffer.

[2] = target: T1, EGFR; assay: Fluorescence intensity measurement of CoLDR turn-on probe; type: binding; design: EGFR kinase domain was a generous gift from Prof; Michael Eck; gift from Prof; settings: 2 μM probe, 2 μM protein
Protocol: (§1) A 2 μM concentration of BTK, EGFR, or K-RAS^G12C was added to 2 μM 3k, 4b, or 5a, respectively. […] Each condition was done in triplicates in 20 mM Tris pH 8.0 and 50 mM NaCl for BTK and K-RAS^G12C and in 50 mM Tris pH 8.0 and 100 mM NaCl for EGFR at 32 °C. Fluorescent measurements were taken every 2 min for 2 h for BTK and EGFR and every 10 min for 15 h for K-RAS^G12C. At the end of the measurements, samples were injected directly into the LC/MS for labeling quantification. K-Ras^G12C was expressed and purified as previously described,[69] EGFR kinase domain was a generous gift from Prof. Michael Eck.
Target sequence in this assay (P00533 712-979 limits assumed): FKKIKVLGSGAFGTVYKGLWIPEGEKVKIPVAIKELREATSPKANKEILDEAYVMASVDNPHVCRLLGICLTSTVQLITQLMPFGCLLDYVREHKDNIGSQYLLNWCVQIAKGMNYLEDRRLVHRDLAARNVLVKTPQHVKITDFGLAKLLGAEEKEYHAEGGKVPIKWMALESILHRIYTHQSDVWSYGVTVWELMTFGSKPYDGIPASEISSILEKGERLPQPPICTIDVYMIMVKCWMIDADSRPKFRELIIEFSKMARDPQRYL

[3] = target: wild-type BTK (Homo sapiens, UniProt Q06187); assay: In vitro kinase activity assay (Nanosyn); settings: BTK IC50, 0.6 nM BTK, 5 μM ATP; Figure 4C
Protocol: as §2

[4] = target: BTK (Homo sapiens, UniProt Q06187); assay: Fluorescence intensity measurement of CoLDR turn-on probe; type: binding; settings: 2 μM probe, 2 μM BTK
[5] = target: BSA (Bos taurus, UniProt P02769); assay: Turn-on fluorescence selectivity control with BSA; type: binding; settings: 10 μM BSA with 2 μM 3k
From the text: The fact that a specific leaving group is released as a function of selective binding of a target protein can be used to functionalize irreversible inhibitors, for example as turn-on fluorescent probes. To assess the applicability and generality of this approach, we chose three therapeutic targets for which acrylamide inhibitors are available: BTK, EGFR, and K-RAS^G12C as model systems. Initially, we treated 3k (Figure 6A) with BTK, measured the released coumarin fluorescence, and validated the labeling via LC/MS (Figure 6B,C). […] We could also […] the rate of the reaction by using 20:1 equiv of protein:probe (Figure S16). […] The release can also be inhibited by preincubation of BTK with iodoacetamide alkyne (IAA; Figure S17B).
Figure S17. […] A. 10 μM BSA with 2
B. 2 μM BTK fully labeled with IAA (red) compared to 2 μM non labeled BTK (blue) with 2 μM 3k. The lack of signal for the labeled BTK indicated the fluorescence is triggered by a free cysteine.
(1 picture or pasted object on this page, not shown here)

[6] = target: K-Ras^G12C (Homo sapiens, UniProt P01116, G12C); assay: Fluorescence intensity measurement of CoLDR turn-on probe; type: binding; settings: 2 μM probe, 2 μM protein
Protocol: as §1

Sequence of BSA (P02769 25-607): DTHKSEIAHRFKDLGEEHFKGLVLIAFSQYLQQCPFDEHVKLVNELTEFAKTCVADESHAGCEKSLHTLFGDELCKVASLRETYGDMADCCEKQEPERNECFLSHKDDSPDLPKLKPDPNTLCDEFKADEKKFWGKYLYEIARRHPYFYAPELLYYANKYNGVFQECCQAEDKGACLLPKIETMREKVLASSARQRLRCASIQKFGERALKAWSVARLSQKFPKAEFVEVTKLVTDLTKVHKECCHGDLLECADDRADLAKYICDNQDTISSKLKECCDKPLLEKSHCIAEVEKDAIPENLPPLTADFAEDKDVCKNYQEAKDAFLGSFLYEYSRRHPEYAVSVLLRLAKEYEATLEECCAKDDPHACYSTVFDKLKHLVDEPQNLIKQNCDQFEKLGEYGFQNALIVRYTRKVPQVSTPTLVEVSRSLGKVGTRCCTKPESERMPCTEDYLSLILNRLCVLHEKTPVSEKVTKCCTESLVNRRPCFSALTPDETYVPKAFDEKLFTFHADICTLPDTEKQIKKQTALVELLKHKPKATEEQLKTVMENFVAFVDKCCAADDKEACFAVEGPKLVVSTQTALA
Sequence of BTK (Q06187 402-655 limits assumed): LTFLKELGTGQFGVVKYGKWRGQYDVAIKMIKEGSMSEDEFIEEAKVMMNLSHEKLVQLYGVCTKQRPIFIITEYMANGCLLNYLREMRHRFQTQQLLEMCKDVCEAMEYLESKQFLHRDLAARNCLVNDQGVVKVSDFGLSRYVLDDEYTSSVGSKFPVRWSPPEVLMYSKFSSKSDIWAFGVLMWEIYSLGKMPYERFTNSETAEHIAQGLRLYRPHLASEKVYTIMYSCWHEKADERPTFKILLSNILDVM
Sequence of wild-type BTK (Q06187 whole entry): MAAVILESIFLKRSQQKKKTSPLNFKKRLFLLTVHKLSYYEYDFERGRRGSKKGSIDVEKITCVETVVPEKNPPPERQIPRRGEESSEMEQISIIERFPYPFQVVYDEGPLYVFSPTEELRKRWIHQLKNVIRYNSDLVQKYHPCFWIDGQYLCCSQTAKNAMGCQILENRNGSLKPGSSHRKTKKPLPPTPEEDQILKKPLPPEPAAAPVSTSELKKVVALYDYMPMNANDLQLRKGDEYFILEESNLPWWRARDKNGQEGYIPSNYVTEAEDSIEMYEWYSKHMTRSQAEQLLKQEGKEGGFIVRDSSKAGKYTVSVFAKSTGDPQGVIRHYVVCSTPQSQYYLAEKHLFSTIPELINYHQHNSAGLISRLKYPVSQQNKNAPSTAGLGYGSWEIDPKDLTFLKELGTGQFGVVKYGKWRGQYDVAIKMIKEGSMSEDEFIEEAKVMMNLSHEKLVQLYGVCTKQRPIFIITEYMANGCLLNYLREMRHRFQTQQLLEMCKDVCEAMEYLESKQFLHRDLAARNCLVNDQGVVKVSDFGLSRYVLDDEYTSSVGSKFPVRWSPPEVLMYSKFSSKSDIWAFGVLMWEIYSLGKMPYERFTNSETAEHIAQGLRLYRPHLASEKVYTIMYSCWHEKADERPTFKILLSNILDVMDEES

C=C(COc1ccc2ccc(=O)oc2c1)C(=O)Nc1cc2c(Nc3ccc(F)c(Cl)c3)ncnc2cc1OC [4b]
pIC50 [1]: 8.48 | released coumarin fluorescence with EGFR [2]: significant increase in fluorescence intensity

C=C(COc1ccc2ccc(=O)oc2c1)C(=O)N1CCC[C@@H](n2nc(-c3ccc(Oc4ccccc4)cc3)c3c(N)ncnc32)C1 [3k]
pIC50 [3]: 9.00 | increase of fluorescence intensity at 435 nm upon addition of BTK [4]: 30 fold | time to saturation of fluorescence [4]: ≤ 10 min | turn-on fluorescence with BSA [5]: no reaction; also recorded: does not result in increased fluorescence

C=C(COc1ccc2ccc(=O)oc2c1)C(=O)N1CCN(c2nc(=O)n(-c3c(C)ccnc3C(C)C)c3nc(-c4c(O)cccc4F)c(F)cc23)[C@@H](C)C1 [5a]
released coumarin fluorescence with K-RAS^G12C [6]: significant increase in fluorescence intensity
